# Assay results published in patent US20230381190A1, “Methods and Treatment for Complex Lymphatic Malformations” (priority 2022, published 2023).
# “And” between values parts separate entries of the source, which are not always exact repeats. Equal values may be shown once. Read-outs that look alike come from different tables or passages of the source.
# Experiments:
# [1] = Modeling and simulation of human PK for dose selection; conditions: total daily dose 1.0 mg, divided every 12 hours, 50th percentile
# From the text: The doses proposed for this study were selected after modeling and simulation of the human PK of CERC-006 using data reported by Mateo et al (Mateo J, Olmos D, Dumez H, et al. A first in man, dose-finding study of the mTORC1/mTORC2 inhibitor OSI-027 in patients with advanced solid malignancies. Br J Cancer. 2016114(8):889-896) and comparing the PK/PD response for sirolimus in patients with complicated vascular anomalies published by Adams et al (Adams et al, Pediatrics (2016)) and Mizuno et al (Mizuno T, Emoto C, Fukuda T, et al. Model-based precision dosing of sirolimus in pediatric patients with vascular anomalies. Eur J Pharm Sci. 2017; 109S:S124-S131). The goal was to estimate doses that would produce effective trough plasma concentrations of CERC-006 in relation to pharmacological target potency (mTOR complex inhibition) using the PK/PD response achieved by sirolimus in this patient population as a benchmark. […] The additional dose proposed, 2.0 mg/day, is necessary to ensure potential therapeutic benefit while preserving safety and providing a range of plasma concentrations to guide future PK/PD modeling efforts.
# [2] = cited from earlier work
# [3] = cited from earlier work; remark: listed apart in the source
# [4] = linear extrapolation from simulated PK profile, listed as CERC-006
# [5] = regardless of relationship, 123 subjects
structure (smiles),measurement,setting,value
"COc1cccc2cc(-c3nc([C@H]4CC[C@H](C(=O)O)CC4)n4ncnc(N)c34)[nH]c12 [AVTX-006, trans-4-[4-Amino-5-(7-methoxyl-1H-indol-2-yl)-imidazo[5,1-f][1,2,4]triazine-7-yl]-cyclohexanecarboxylic acid]",Free trough concentration above the in vitro IC50 for mTOR complex inhibition,[1],approximately 2 fold
same,Free trough plasma concentration,[1]; [4],~4 ng/mL and ~10 nM
same,Total trough plasma concentration,[1]; [4],approximately 27 ng/mL and ~66 nM
same,Estimated terminal half-life (t1/2),[2]; 240 mg dose in S2 (weekly dose schedule),approximately 14 hours
same,Dose proportionality of area under the curve (AUC),"[2]; S1 and S2, slope close to 1",dose proportional
same,Dose proportionality of increases in Cmax,[2]; S1 and S3,apparently proportional to dose
same,Subjects with TEAEs considered drug regimen-related,"[3]; 92 of 123 subjects, by the investigator",74.8%
same,Drug regimen related TEAE anorexia,[3]; 123 subjects,21.1%
same,Drug regimen related TEAE fatigue,[3]; 123 subjects,44.7%
same,Drug regimen related TEAE increased blood creatinine,[3]; 123 subjects,26.0%
same,Drug regimen related TEAE nausea,[3]; 123 subjects,40.7%
same,Drug regimen related TEAE vomiting,[3]; 123 subjects,18.7%
same,Subjects with related SAEs,[3]; Fifteen subjects,12.2%
same,Subjects with serious adverse events (SAEs),[3]; Fifty of 123 subjects treated,40.6%
same,Maximum tolerated dose (MTD),[3]; S1: once daily for 3 consecutive days every 7 days,120 mg
same,"Deaths, subjects",[3]; S1,48.2%
same,Maximum tolerated dose (MTD),"[3]; S2: once weekly, escalation stopped at 240 mg every week",not reached
same,"Deaths, subjects",[3]; S2,25.6%
same,Maximum tolerated dose (MTD),[3]; S3: once daily dosing,30 mg
same,Dose at which renal toxicity was dose limiting,[3]; S3: once daily,40 mg
same,"Deaths, subjects",[3]; S3,14.3%
same,Deaths considered drug related,[3]; all schedules,None
same,Observed dose limiting toxicities (DLTs),[3]; all schedules,"fatigue, renal, and cardiac events"
same,Related SAE anorexia,[3]; in vivo,1 subject
same,Related SAE blood creatinine increased,[3]; in vivo,2 subjects
same,Related SAE bone pain,[3]; in vivo,1 subject
same,Related SAE cardiac failure congestive,[3]; in vivo,1 subject
same,Related SAE cataract subcapsular,[3]; in vivo,1 subject
same,Related SAE diarrhea,[3]; in vivo,1 subject
same,Related SAE fatigue,[3]; in vivo,3 subjects
same,Related SAE myocardial infarction,[3]; in vivo,1 subject
same,Related SAE nausea,[3]; in vivo,3 subjects
same,Related SAE pneumonia,[3]; in vivo,1 subject
same,Related SAE renal failure,[3]; in vivo,1 subject
same,Related SAE stress cardiomyopathy,[3]; in vivo,1 subject
same,Related SAE supraventricular tachycardia,[3]; in vivo,1 subject
same,Related SAE urticaria,[3]; in vivo,1 subject
same,Related SAE vomiting,[3]; in vivo,2 subjects
same,"TEAE abdominal pain upper, subjects",[3]; [5],10.6%
same,"TEAE abdominal pain, subjects",[3]; [5],17.1%
same,"TEAE anemia, subjects",[3]; [5],13.8%
same,"TEAE anorexia, subjects",[3]; [5],40.7%
same,"TEAE back pain, subjects",[3]; [5],14.6%
same,"TEAE blood creatinine increased, subjects",[3]; [5],28.5%
same,"TEAE constipation, subjects",[3]; [5],25.2%
same,"TEAE cough, subjects",[3]; [5],14.6%
same,"TEAE diarrhea, subjects",[3]; [5],22.8%
same,"TEAE dyspnea, subjects",[3]; [5],17.1%
same,"TEAE fatigue, subjects",[3]; [5],65.0%
same,"TEAE headache, subjects",[3]; [5],14.6%
same,"TEAE hypokalemia, subjects",[3]; [5],12.2%
same,"TEAE nausea, subjects",[3]; [5],60.2%
same,"TEAE vomiting, subjects",[3]; [5],33.3%
same,"TEAE weight decreased, subjects",[3]; [5],13.8%
